# According to patent publication US7700631B2, “Phosphodiesterase 4 inhibitors” (Memory Pharmaceuticals Corporation, priority 2002, dated 2010):
# Columns and labels:
# rats [1] = test: Passive Avoidance in Rats, an in vivo Test for Learning and Memory; set-up: species or system rat; conditions: MK-801 0.1 mg/kg, compared to the vehicle, p<0.001, 24 hours after shock
# Description: The test was performed as previously described (Zhang, H.-T., Crissman, A. M., Dorairaj, N. R., Chandler, L. J., and O'Donnell, J. M., Neuropsychopharmacology, 2000, 23, 198-204.). The apparatus (Model E10-16SC, Coulbourn Instruments, Allentown, Pa.) consisted of a two-compartment chamber with an illuminated compartment connected to a darkened compartment by a guillotine door. The floor of the darkened compartment consisted of stainless steel rods through which an electric foot-shock could be delivered from a constant current source. All experimental groups were first habituated to the apparatus the day before the start of the experiment. During the training, the rat (Male Spraque-Dawley (Harlan) weighing 250 to 350 g) was placed in the illuminated compartment facing away from the closed guillotine door for 1 minute before the door was raised. The latency for entering the darkened compartment was recorded. After the rat entered the darkened compartment, the door was closed and a 0.5 mA electric shock was administered for 3 seconds. […] The latency for entering the darkened compartment was recorded for up to 180 seconds, at which time the trial was terminated.
# (§1) All data were analyzed by analyses of variance (ANOVA); individual comparisons were made using Kewman-Keuls tests. […]
# rats [2] = test: Radial Arm Maze Task in Rats, an In Vivo Test for Learning and Memory; set-up: species or system rat; conditions: MK-801 0.1 mg/kg i.p., compared to control, p<0.01
# Description: The test was performed as previously described (Zhang, H.-T., Crissman, A. M., Dorairaj, N. R., Chandler, L. J., and O'Donnell, J. M., Neuropsychopharmacology, 2000, 23, 198-204.). Five days after initial housing, rats (male Spraque-Dawley (Harlan) weighing 250 to 350 g) were placed in the eight-arm radial maze (each arm was 60×10×12 cm high; the maze was elevated 70 cm above the floor) for acclimation for two days. Rats were then placed individually in the center of the maze for 5 minutes with food pellets placed close to the food wells, and then, the next day, in the wells at the end of the arms; 2 sessions a day were conducted. Next, four randomly selected arms were then baited with one pellet of food each. The rat was restricted to the center platform (26 cm in diameter) for 15 seconds and then allowed to move freely throughout the maze until it collected all pellets of food or 10 minutes passed, whichever came first. Four parameters were recorded: 1) working memory errors, i.e., entries into baited arms that had already been visited during the same trial; 2) reference memory errors, i.e., entries into unbaited arms; 3) total arm entries; and 4) the test duration (seconds), i.e., the time spent in the collection of all the pellets in the maze. […]
# as §1
smiles,measurement,setting,value
C[C@]12N[C@H](Cc3ccccc31)c1ccccc12 [MK-801],latency for entering the darkened compartment,rats [1],markedly reduced this latency
same,frequencies of working and reference memory errors,rats [2],increased the frequencies of both working and reference memory errors
